Source: patent US10358469B2, “Methods and pharmaceutical compositions for the treatment of cancer” (INSERM (INSTITUT NATIONAL DE LA SANTÉ ET DE LA RECHERCHE …, priority 2014, dated 2019)

Assays:
[1] = test system: A549 cells; experiment: Cell viability (MTT) of A549 cells under low serum / serum deprivation; type: cell-based
Procedure: (A) Karpas 1106, SU-DHL-5, SeAx and HUT-78 cells were plated at a densities of 6×10^3 in 96 well plates (100 μL total volume per well) and treated for 24 hours in a 37° C. incubator (5% CO2) with increasing concentrations of the Antp-AAC-11-LZ (363-399). 20 μL MTS reagent was then added to each well and plates were incubated for an additional 4 hours. Absorbance was measured at 490 nm using a 96-well plate reader. The extent to which the Antp-AAC-11-LZ (363-399) peptide inhibited cell proliferation was calculated as a percentage of the absorbance in each well containing the Antp-AAC-11-LZ (363-399) peptide relative to wells containing no peptide (negative control). Each bar represents the mean±s.d. from at least three independent experiments. (B) Indicated cells were plated at a densities of 4.5×10^3 in 96 well plates (100 μL total volume per well) and allowed to attach overnight in a 37° C. incubator (5% CO2). Media was removed from cells and replaced with media containing Antp-AAC-11-LZ (363-399) peptide at various concentrations (100 μL total volume per well) peptide and the plates were incubated for 24 hours. The MTT assay was then completed and data analysis was performed as described herein. […] A549 cells were plated at a densities of 4.5×10^3 in 96 well plates (100 μL total volume per well) and allowed to attach overnight in a 37° C. incubator (5% CO2). Media was removed from cells and replaced with media containing the indicated peptides at 10 μM (100 μL total volume per well) and the plates were incubated for 24 hours. The MTT assay was then completed and data analysis was performed as described herein.
(A) A549 cells were plated at a densities of 4.5×10^3 in 96 well plates (100 μL total volume per well) and allowed to attach overnight in a 37° C. incubator (5% CO2). Media was removed from cells and replaced with media containing the indicated peptides at various concentrations (100 μL total volume per well) peptide in the absence of serum and the plates were incubated for 24 hours. The MTT assay was then completed and data analysis was performed as described herein. (B) A549 or HaCat cells were plated at a densities of 4.5×10^3 in 96 well plates (100 μL total volume per well) and allowed to attach overnight in a 37° C. incubator (5% CO2). Media was removed from cells and replaced with media containing the indicated peptides at 10 μM (100 μL total volume per well) peptide in the absence of serum and the plates were incubated for 24 hours. The MTT assay was then completed and data analysis was performed as described herein.
A549 cells were plated at a densities of 4.5×10^3 in 96 well plates (100 μL total volume per well) and allowed to attach overnight in a 37° C. incubator (5% CO2). Cells were left untreated or pre-treated with 100 μM Z-VAD-FMK for 2 h. […] The MTT assay was then completed and data analysis was performed as described herein.
(A) A549 cells were plated at a densities of 4.5×10^3 in 96 well plates (100 μL total volume per well) and allowed to attach overnight in a 37° C. incubator (5% CO2). Media was removed from cells and replaced with media containing the indicated Antp-AAC-11-LZ peptides at various concentrations (100 μL total volume per well) peptide and the plates were incubated for 24 hours. The MTT assay was then completed and data analysis was performed as described herein. (B) A549 or HaCat cells were plated at a densities of 4.5×10^3 in 96 well plates (100 μL total volume per well) and allowed to attach overnight in a 37° C. incubator (5% CO2). Media was removed from cells and replaced with media containing the indicated peptides at 10 μM (100 μL total volume per well) peptide in the absence of serum and the plates were incubated for 24 hours. The MTT assay was then completed and data analysis was performed as described herein.

[2] = Toxicity of peptide injection in nude mice; conditions: i.p. twice per week for 4 weeks
Procedure: Nude mice were injected intraperitoneally twice a week for 4 weeks with normal saline solution or the indicated doses of Antp-AAC-11-LZ (363-399) peptide (n=3-4 mice per group) and were monitored daily for body weight (mean±s.e.m).
Nude mice were injected intraperitoneally twice a week for 4 weeks with normal saline solution or the indicated doses of Antp-AAC-11-LZ (377-399) peptide (n=3-4 mice per group) and were monitored daily for body weight (mean±s.e.m).
We first evaluated the toxicity of the Antp-AAC-11-LZ (363-399) peptide in nude mice that were injected intraperitoneally twice per week for 4 weeks with the Antp-AAC-11-LZ (363-399) peptide or normal saline solution (dose range: 0.8-4.8 mg peptide/kg body weight; n=3-4 mice per group).
We first evaluated the toxicity of the Antp-AAC-11-LZ (377-399) peptide in nude mice that were injected intraperitoneally twice per week for 4 weeks with the Antp-AAC-11-LZ (377-399) peptide or normal saline solution (dose range: 1-6 mg peptide/kg body weight; n=3-4 mice per group).

[3] = test system: A549 non-small cell lung cancer xenograft; experiment: A549 lung adenocarcinoma subcutaneous xenograft in nude mice; type: in vivo; conditions: 5 mg/kg i.p., 7 daily injections
Procedure: A549 cells (1.25×10^6) were injected subcutaneously to six weeks old female nu/nu mice. Following transplantation (n=5-6 per model) tumor growth was assessed by measuring tumor size in two dimension using a Vernier caliper. Tumor volume was calculated using the formula [3.14×long axis×short axis×short axis]/6 (Kjonniksen et al., 1989). Treatment started after randomisation when tumor volumes had reached a size of approximately 100 mm^3 and consisted of intraperitoneal injection of AAC-11-LZ (377-399) or Antp-AAC-11-LZ (377-399) peptides (5 mg/kg) or vehicle (normal saline solution) each day for 7 consecutive days. Mice were weighted and the tumor size was measured by a caliper and recorded daily. Twenty eight days after beginning of the treatment mice were sacrificed. The tumors, kidney, lungs, heart, liver, pancreas and spleen were taken and fixed. Paraffin-embedded sections were prepared and stained with hematoxylin and eosin for histological analysis.

[4] = test system: U2OS cells; experiment: Matrigel invasion assay, U2OS cells; type: cell-based; conditions: 7.5 μM, toward 10% FBS, 48 h, FIG. 10B
Procedure: (§1) FIG. 10: Antp-AAC-11-LZ (377-399) peptide inhibits cell migration and invasion. (A) U2OS cells were added to the upper well of modified Boyden chamber (transwell) plates in serum-free medium containing 0.4% BSA with a vehicle or with either 7.5 μM of the Antp-AAC-11-LZ (377-399) peptide or the AAC-11-LZ (377-399) peptide and subjected to a transwell migration assay as described under Materials and methods. The cells were allowed to migrate toward 10% FBS for 24 h. Triplicate wells were used for each of three independent experiments. The results are expressed relative to the migration of the untreated cells (=100%). Column: Mean of three experiments. Bar: s.e. P-value was determined by Student's t-test (*P<0.01). (B) U2OS cells were seeded in a Matrigel-coated Boyden chamber in serum-free medium containing 0.4% BSA with a vehicle or with either 7.5 µM of the Antp-AAC-11-LZ (377-399) peptide or the AAC-11-LZ (377-399) peptide and subjected to a transwell migration assay as described under Materials and methods. The cells were allowed to migrate toward 10% FBS for 48 h. Triplicate wells were used for each of three independent experiments. The results are expressed relative to the migration of the untreated cells (=100%). Column: Mean of three experiments. Bar: s.e. P-value was determined by Student's t-test (*P<0.01) […]

[5] = test system: U2OS cells; experiment: Transwell Boyden chamber migration assay, U2OS cells; type: cell-based; conditions: 7.5 μM, serum-free medium with 0.4% BSA, toward 10% FBS, 24 h, FIG. 10A
Procedure: as §1

Row | Substance | cellular viability ([1]; 2 µM) | cytotoxicity (decrease of A549 viability) relative to comparison peptide, dose-response ([1]; various concentrations, low-serum conditions, 24 hours, FIG. 2A / 5A) | mortality ([2]; 1-6 mg peptide/kg body weight) | body weight difference between groups ([2]; 1-6 mg peptide/kg body weight, FIG. 11A) | toxicity to kidney, lungs, heart, liver, pancreas and spleen ([2]; 1-6 mg peptide/kg, end of experiment) | tumor size versus AAC-11-LZ (377-399) peptide or vehicle ([3]; FIG. 11B) | cell invasion [4] | cell migration [5] | final mean tumor volume relative to control-treated mice ([3]; p=0.01)
1 | Ac-RQIKIWFKKQNRRMKWKKLQYFARGLQVYIRQLRLALQGKT-NH2 [Antp-AAC-11-LZ (377-399)] | 5 % of control | markedly increased cytotoxicity potency compared to the parent peptide | No mice died | no significant difference | no obvious toxicity | significantly smaller tumors | prevented invasion | substantially decreased | 
2 | AAC-11-LZ (377-399): LQYFARGLQVYIRQLRLALQGKT (SEQ ID NO: 16) (Synthetic AAC-11-LZ (377-399)) |  |  |  |  |  |  | didn't show any effect | didn't show any effect | less than 25%
